Tests used:
[1] = system: DRG neurons; assay: Adult DRG neuron primary culture, length of the longest axon (compound test); assay type: cell-based, mouse; details: cGAMP 10 μM; for effect on the growth effect induced by cGAMP: DRG culture, DCPIB 100 nM, CBX 10 μM; for axon elongation / axon growth in DRG culture: WT DRG neurons, DMXAA 10 μM, C-176 1 μM, H-151 1 μM
Description: (§1) In some embodiments, in-vitro screening models of axon regeneration are based on DRG electroporation and replating culture. Adult DRGs were cultured and replated according to the protocol described previously (Weng et al., 2018). In certain embodiments, adult mice were euthanized, and L4-L6 DRGs were dissected from both sides. DRGs were dissociated in 0.5% collagenase for 1.5 hours. Then the medium containing collagenase was replaced by Neurobasal A, and DRGs were gently pipetted 20 times for dissociation. For electroporation, dissociated DRG neurons were transfected by Mouse Neuron Nucleofector Kit in Lonza Nucleofector system using program G103. 6 DRGs and 5 μg plasmid were used for each reaction. Neurobasal-A with 10% B27 supplement was used as the culture medium for DRG neurons.
(§2) For quantification of neurite lengths in DRG culture. Cells were fixed and stained with TurboGFP (phosphatase shRNA library screening) or Tuj 1. The lengths of the longest axons in each DRG neuron were quantified by the NeuronJ plugin in ImageJ. For phosphatase screening, 5-10 neurons were quantified for each shRNA. For the compound test, 10-20 cells from each mouse and 3 mice were quantified in each group.

[2] = system: embryonic DRG neurons; assay: Embryonic DRG culture in compartmented chamber, in-vitro axotomy; assay type: cell-based, mouse; details: ADU-S100 10 μM added to the axonal or the soma compartment
Description: To culture embryonic DRG in the compartmented chamber, embryonic DRGs were dissected from E13.5 pregnant C57BL/6 mouse embryos in Leibovitz's L-15 medium on ice. Tissues were dissociated in TrypLE for 15 minutes at 37° C. Dissociated neurons were plated in the microfluidic chamber on cleaned glass coverslips pre-coated with poly-D-lysine and laminin in the density of 100000 cells per chamber with 5 μL culture medium supplemented with GlutaMAX (2 mM), B27 (20 ml/l), penicillin-Streptomycin, NGF ([…]) and 5-fluoro-2′-deoxyuridine (10 μM) into the somal compartment. After one hour, 200 μL medium was added into both the somal and axonal compartment. To perform in-vitro axotomy, axons in the axonal chamber were removed by a glass pipette connected to an aspirator. Then, a 150 μL medium was quickly added into the empty compartment. After 2 days in the […], cells were fixed by 4% PFA and then stained by Tuj 1 antibody. The lengths and/or number of longest axons in each chamber were quantified by ImageJ.

[3] = system: retinal ganglion cells (RGCs); assay: Optic nerve crush, number of regenerating axons (CTB labeling); assay type: in vivo, mouse
[4] = system: adult DRG neurons; assay: DRG replating assay, phosphatase inhibitor screening; assay type: cell-based, mouse; details: replated adult DRG neurons, inhibitors 100 nM
Description: as §1
The culture was replated three days after electroporation. The DRG neurons in the primary culture were gently flushed by 20-30 pipetting to be resuspended in the culture medium. […] The lengths of the longest axons in each DRG neuron were quantified by the NeuronJ plugin in ImageJ. […]
as §2, with “Cells were fixed and stained with TurboGFP (phosphatase shRNA library screening) or Tuj 1.” left out

[5] = system: retinal ganglion cells (RGCs); details: 2 WPI
[6] = system: p-STAT1; assay: p-STAT1 in RGCs/retina after optic nerve injury (immunostaining, western blot); assay type: in vivo, mouse; details: for p-STAT1 accumulation in the nuclei of RGCs: WT, IFNγ administration
[7] = system: cGAS; assay: cGAS expression in retina/RGCs after optic nerve injury (western blot, immunostaining); assay type: in vivo, mouse
[8] = system: p-STAT3; assay: p-STAT3 in RGCs after optic nerve injury (immunostaining); assay type: in vivo, mouse; details: Ptpn2 KO group with IFNγ, 1 dpc
[9] = system: IFNγ; assay: Ex-vivo model of sciatic nerve injury, IFNγ immunostaining; set-up: species or system mouse; details: injured sciatic nerve segments in DMEM, anisomycin 200 μg/ml, 3-hour incubation
Description: For the ex-vivo model of sciatic nerve injury, the nerves were crushed and then cut into about 3 mm to about 5 mm segments. The injured nerve segments were incubated in DMEM supplemented with about 10% FBS and about 1% penicillin/streptomycin. Translation was inhibited by 200 μg/ml anisomycin. After about a 3-hour incubation, nerve segments were fixed by 4% PFA for about 2 hours and then proceeded to the frozen section.
Mice were first perfused by PBS and then 4% PFA for 5 minutes for fixation. Respective tissues were dissected and then post-fixed in 4% PFA for two hours. Fixed tissues were incubated in 30% sucrose overnight and then embedded in an optimum cutting temperature (OCT) compound. Frozen sections were then permeabilized with 0.1% Triton X-100, blocked by 4% normal goat serum for 30 min, and incubated by respective primary antibodies overnight. After PBS washing three times, sections were incubated by secondary antibodies for two hours and washed three times again. Images were taken by Leica SP8 confocal microscope.

[10] = Ptpn2 cKO plus IFNγ after optic nerve injury

CC1(C)[C@@H](OC(=O)CCC(=O)O)CC[C@]2(C)[C@H]3C(=O)C=C4[C@@H]5C[C@@](C)(C(=O)O)CC[C@]5(C)CC[C@@]4(C)[C@]3(C)CC[C@@H]12 [CBX]
effect on the growth effect induced by cGAMP [1]: inhibit the growth effect induced by cGAMP

Cc1ccc2c(=O)c3cccc(CC(=O)O)c3oc2c1C [DMXAA, 5,6-Dimethylxanthenone-4-acetic acid]
axon elongation / axon growth in DRG culture [1]: enhanced the axon elongation

Nc1ncnc2c1ncn2[C@@H]1O[C@@H]2COP(=O)([S-])O[C@@H]3[C@H](O)[C@@H](COP([O-])(=S)O[C@H]2[C@H]1O)O[C@H]3n1cnc2c(N)ncnc21.[Na+].[Na+] (stereo partly shown) [ADU-S100, reference compound]
axon elongation after in-vitro axotomy [2]: enhanced axon elongation
axon regeneration after optic nerve crush ([3]; mouse, in vivo): regenerative effect in a dose-dependent manner

CCc1ccc(C(=O)NCCCCC(NC(=O)C(Cc2ccc(C(F)(F)P(=O)(O)O)cc2)NC(=O)C(Cc2ccccc2)NC(=O)COC2CC(C)CCC2C(C)C)C(N)=O)cc1 (stereo not shown) [PTPN2 inhibitor, reference compound]
axon regeneration after optic nerve crush ([3]; mouse, in vivo): elicited modest axon regeneration
in-vitro screening on inhibitors of mouse phosphatases (axon elongation) [4]: identified from the tyrosine phosphatase inhibitor screening

IFNγ: type II interferon, recombinant protein (Prospec)
optic nerve regeneration by IFNγ stimulation ([3]; Cgas or Sting KO mice with AAV-shRNA-Ptpn2, 0.1 μg/μL IFNγ, 2 weeks after injury): almost completely blocked
axons found at the optic chiasm, vs Pten/Socs3 mutant plus vehicle ([3]; Pten/Socs3/Ptpn2 triple KO with AAV-CNTF, IFNγ at time of injury, four weeks): about 3 fold
axon regeneration, exogenous ligand screen ([3]; Ptpn2 KO mice, protein injected into the eye at time of optic nerve crush, two weeks, IFNγ 0.1 μg/μL, leptin 2, insulin 2, EGF 1, bNGF 1 μg/μL): significantly boosted axon regeneration
axon regeneration, IFNγ plus Ptpn2 KO ([3]; Ptpn2 cKO mice, intravitreal IFNγ immediately after optic nerve injury (repeat with more controls)): elicited robust regeneration
axon regrowth, IFNγ alone ([3]; WT mice, intravitreal IFNγ immediately after optic nerve injury): induced modest regrowth
axon regeneration, triple KO plus IFNγ vs Pten/Socs3 mutant plus vehicle ([3]; mouse, in vivo): very significant increase in axon regeneration
RGC survival rates ([5]; WT or Ptpn2 cKO with PBS or IFNγ): comparable among the four groups
RGC survival ([5]; WT, Cgas, Sting or Mavs KO mice with AAV-shRNA-Ptpn2 and IFNγ): comparable among all groups
p-STAT1 in RGCs ([6]; Ptpn2 KO group with IFNγ): enhanced up to 5 dpc
p-STAT1 in retina lysates by western blotting [6, 10]: most elevated among all groups
p-STAT1 accumulation in the nuclei of RGCs ([6]; 1 dpc): induced p-STAT1 accumulation
p-STAT1 accumulation in the nuclei of RGCs ([6]; 3 dpc): not at 3 dpc
cGAS in RGCs by immunostaining ([7]; Ptpn2 cKO in addition to IFNγ, 2 days after injury): upregulated
cGAS in retina by western blotting [7, 10]: detectable only in mouse retinas with Ptpn2 cKO plus IFNγ
phosphorylated STAT3 (p-STAT3) in RGCs [8]: also activated

Nc1nc2c(ncn2[C@@H]2O[C@@H]3COP(=O)(O)O[C@H]4[C@@H](O)[C@H](n5cnc6c(N)ncnc65)O[C@@H]4COP(=O)(O)O[C@@H]2[C@@H]3O)c(=O)[nH]1 [2′,3′-cGAMP, reference compound]
growth effect of cGAMP on DRG culture ([1]; Sting deletion (Sting KO mice)): completely abolished
axon elongation / axon growth in DRG culture [1]: enhanced the axon elongation
axon regeneration after optic nerve crush ([3]; mouse, in vivo): stimulated significant axon regeneration
cGAMP-induced regeneration ([3]; mouse, in vivo): suppressed
cGAMP-stimulated axon regeneration ([3]; mouse, in vivo): almost completely blocked

CCCCC1(C2CCCC2)Cc2cc(OCCCC(=O)O)c(Cl)c(Cl)c2C1=O (stereo not shown) [DCPIB]
effect on the growth effect induced by cGAMP [1]: inhibit the growth effect induced by cGAMP

COc1ccc(C[C@H]2NC[C@H](O)[C@H]2OC(C)=O)cc1 [anisomycin]
reduction of the IFNγ signal [9]: over 50%

— patent publication US20240141356A1, “Driving Axon Regeneration by Activating STAT1 Signaling and cGAS-STING Pathway” (The Hong Kong University of Science and Technology, priority 2022, published 2024)
